Data as given in patent US20240197874A1, “MATERIALS AND METHODS FOR IMPROVING EFFICACY OF ADOPTIVE IMMUNE CELL THERAPY” (priority 2021, published 2024).

Columns and labels:
Naïve CD4 T cells [1] = experiment: Percentage of live cells (Annexin V negative) of activated naïve CD4 T cells with increasing inhibitor doses; type: cell-based, human; settings: for toxicity of doses used for lysosome inhibition: chloroquine 20 μM, Bafilomycin A1 10 nM
Experimental: FIGS. 2A-2H. Naïve CD4 T cells from old adults lose lysosomal function but maintain mTORC1 activity after activation on day 5. (FIG. 2A and FIG. 2B) Naïve CD4 T cells from young and old individuals were activated with anti-CD3/anti-CD28 beads for 5 days followed by DQBSA treatments for 6 hours. Fluorescence of cleaved DQ-BSA was analyzed by flow cytometry to determine lysosome activities (FIG. 2A). Phospho-S6K1 (Thr389) protein expression (right) was determined by Western blotting (FIG. 2B). (FIG. 2C) Naïve CD4 T cells were activated for 5 days in the presence of increasing doses of chloroquine (CQ), bafilomycin A1 (BafA1) or JPH203. The percentage of live cells was determined as the frequency of Annexin V negative population. Mean+SD of four experiments. (FIGS. 2D-2G) Naïve CD4 T cells were activated for 5 days with the last 2-day culture with vehicle, chloroquine (CQ) or bafilomycin A1 (BafA1). Alternatively, cells were transfected with control or TFEB siRNA and activated for 5 days. (FIG. 2D) Lysosomal activities were determined as in (FIG. 2A). (FIG. 2E) mTORC1 activity was determined as in (FIG. 2B). (FIG. 2F) TFEB protein silencing were confirmed by Western blotting on day 5 after activation. (FIG. 2G) AKT phosphorylation was determined by Western blotting on day 5 after activation. **p<0.01; NS, not significant. (FIG. 2H) Naïve CD4 T cells from three old individuals were activated and treated with CQ as in (FIG. 2D). SLC7A5 and c-MYC protein expression were determined. Comparison by two-tailed paired t test. *p<0.05, **p<0.01; NS, not significant.
Isolated human naïve CD4 T cells were activated with Dynabeads Human T-Activator CD3/CD28 (11132D, Thermo Fisher Scientific) in RPMI 1640 (Sigma) supplemented with 10% fetal bovine serum (FBS) and 100 U/mL penicillin and streptomycin (Thermo Fisher Scientific). Mouse T cells were activated in plates coated with 8 μg/mL anti-CD3 Ab (16-0032-82, eBioscience) and 8 μg/mL anti-CD28 Ab (16-0281-82, eBioscience) in culture medium supplemented with 10 ng/ml IL-2 (21212, Peprotech). […]

mTORC1 [2] = type: cell-based, human; settings: for S6K1 phosphorylation (mTORC1 activity) under lysosome inhibition: young individuals, day 5, last 2 days with inhibitor
Naïve CD4 T cells [3] = experiment: DQ-BSA lysosomal activity assay in activated naïve CD4 T cells; type: cell-based, human
Experimental: Cells were treated with 5 μg/mL of DQ-BSA (D12050, Thermo Fisher Scientific) diluted in prewarmed medium and incubated at 37° ° C. for 6 hours. Cells were then briefly washed once with ice-cold PBS containing 2% FBS and kept on ice. Fluorescence of cleaved BSA-DQ was analyzed by flow cytometry.

[4] = system: lysosomal cathepsin genes (CTSB, CTSD, CTSH and CTSS); experiment: Lysosomal cathepsin gene expression by qRT-PCR; type: cell-based, human
Experimental: FIGS. 6A-6F. Sustained activation of late endosomal mTORC1 suppresses lysosomal activities in naïve CD4 T cell responses. (FIGS. 6A-6F) Naïve CD4 T cells from young (Y) and old (O) individuals were activated for 5 days. Indicated inhibitor or vehicle control was added for the last 2 days of culture (FIGS. 6A-6B and FIGS. 6E-6F). Alternatively, cells were transfected with control or VPS39 siRNA and then activated with anti-CD3/anti-CD28 beads for 5 days (FIGS. 6C-6D). (FIG. 6A, FIG. 6C, FIG. 6E, and FIG. 6F) Lysosomal cathepsins expressions were determined by qRT-PCR (left); results are normalized to control samples using 18S rRNA as internal control; mean+SD of four experiments; comparison by two-tailed paired t-test. Lysosomal activities were determined by flow cytometry-based analysis of cells treated with 5 μg/mL of DQ-BSA for 6 hours. Results are shown as representative histograms (middle) and cumulative data from four experiments (right, two-tailed paired t-test). The gray histogram represents DQ-BSA free samples. […]
Total RNA was isolated using the RNeasy Plus Mini Kit (74134, QIAGEN) and converted to cDNA using the SuperScript VILO cDNA Synthesis Kit (11754, Invitrogen). Quantitative RT-PCR was performed on the ABI 7900HT system (Applied Biosystems) using Power SYBR Green PCR Master Mix (4368706, Thermo Fisher Scientific), according to the manufacturer's instructions.

mTORC1 [5] = experiment: Endosome isolation and in vitro mTORC1 kinase activity assay toward S6K1; type: biochemical, human; settings: cells pre-treated 2 hours with 1 μM inhibitor; day 3
PD-1 = type: cell-based, human; settings: T cells from old adults; day 5
[6] = young individuals, day 5, last 2 days with inhibitor
[7] = CQ and JPH203-cotreated young cells vs CQ alone
[8] = day 5-activated T cells from old adults

CO/C1=C\C(C)=C\[C@@H](C)[C@@H](O)[C@@H](C)C/C(C)=C/C=C/[C@H](OC)[C@@H]([C@@H](C)[C@@H](O)[C@H](C)[C@@]2(O)C[C@@H](O)[C@H](C)[C@@H](C(C)C)O2)OC1=O [Bafilomycin A1] was tested, and the “toxicity of doses used for lysosome inhibition” value (Naïve CD4 T cells [1]) was “nontoxic”, the “S6K1 phosphorylation (mTORC1 activity) under lysosome inhibition” value (mTORC1 [2]) was “neither reduced S6K1” and the lysosomal activities (Naïve CD4 T cells [3]; [6]) was “reduced lysosomal activities”.
With Nc1cc(COc2c(Cl)cc(C[C@H](N)C(=O)O)cc2Cl)c2oc(-c3ccccc3)nc2c1 [JPH203] the “cytotoxicity (percentage of live cells, Annexin V negative)” value (Naïve CD4 T cells [1]; 5 μM, titration experiments, activated naïve CD4 T cells) was “not cytotoxic”, the “inhibition of mTORC1 activity” value (mTORC1 [2]; 5 μM, phosphorylation of S6RP, titration experiments) was “about 50%” and the “mTORC1 activity on day 3” value (mTORC1 [2]; day 3 after activation, young and old cells, 5 μM) was “reduced mTORC1 activity in both young and old cells”. For the same compound, the “excess mTORC1 activity on day 5 in old activated T cells” value (mTORC1 [2]; day 5, old adults, inhibitor for last 2 days, 5 μM) was “sensitive to SLC7A5 inhibition”, the lysosomal activities (Naïve CD4 T cells [3]; [7]) was “increased” and the lysosomal cathepsins [4, 7] was “increased”.
CCN(CC)CCCC(C)Nc1ccnc2cc(Cl)ccc12 (centres unmarked) [chloroquine, Chloroquine] was tested, and the “toxicity of doses used for lysosome inhibition” value (Naïve CD4 T cells [1]) was “nontoxic”, the “S6K1 phosphorylation (mTORC1 activity) under lysosome inhibition” value (mTORC1 [2]) was “neither reduced S6K1” and the lysosomal activities (Naïve CD4 T cells [3]; [6]) was “reduced lysosomal activities”.
For Cl.Cl.NC1(c2ccc(-c3nc4ccn5c(=O)[nH]nc5c4cc3-c3ccccc3)cc2)CCC1 [AKT inhibitor, MK-2206 2HCl], the “mTORC1 kinase activity of endosome isolates toward the substrate S6K1” value (mTORC1 [5]) was “not seen”.
With CCC(=O)N1CCN(c2ccc(-n3c(=O)ccc4cnc5ccc(-c6cnc7ccccc7c6)cc5c43)cc2C(F)(F)F)CC1 [Torin 1] the lysosomal proteolytic activities (Naïve CD4 T cells [3]; [8]) was “partially restored”, the “TFEB-dependent transcription of lysosomal cathepsin genes” value [4, 8] was “partially restored” and the “cell surface protein expression of PD-1” value (PD-1) was “reduced cell surface protein expression”. For the same compound, the “transcripts of PD-1” value (PD-1) was “without effects on transcripts”.
